Test results taken from patent publication US20240226234A1, “WNT5A PEPTIDES FOR THE TREATMENT OF ACUTE M[…]” (W[…], priority 2021, published 2024).
No end group written: not given here. *: point of attachment. For = O=C*

Key:
[1] = system: PI3K and MAPK pathways; test: Western blot of PI3K and MAPK pathway proteins, K562 cells; assay type: cell-based, human; details: K562, Foxy-5 50 μM or 100 μM, 72 h
Description: Equal amounts of protein were resolved by sodium dodecyl sulphate-polyacrylamide gel electrophoresis and transferred onto nitrocellulose membranes (Millipore). Detection was carried out with the chemiluminescent substrate using an ECL Plus (GE-Healthcare). Monoclonal antibodies against P70S6K (sc-8418) and polyclonal antibodies against Actin (sc-1616), AKT1/2/3 (sc-8312), BAX (sc-493), BCL-XL (sc-8392), GAPDH (sc-32,233), p-AKT1/2/3 (sc-33,437) and p-P70S6K (sc-7984) were purchased from Santa Cruz Biotechnology. ERK1/2 ([pT185/Y187]; 44-680G) and ERK1/2 (44-654G) from Invitrogen. Quantitative blots were carried out using the UN-SCAN-IT densitometer software.
Based on the above results, the activity of proteins of PI3K and MAPK pathways were then investigated in a western blot. Briefly, U937 and K562 cells were seeded and treated with Foxy-5 (50 μM or 100 μM) or vehicle for 72 hours. Then, equal amounts of protein were used for total extracts followed by electrophoresis on 12% SDS polyacrylamide gels under reducing conditions, transferred to nitrocellulose membranes, blocked with 10% skimmed milk in TBS-0.1% Tween for 1 hour, stained with appropriate primary and secondary antibodies. The membranes were visualized with chemiluminescence using an ECL Plus (GE-Healthcare). Quantitative analyses of the optical intensities of the protein bands were determined with Un-Scan-It Gel 6.1 (Silk Scientific Inc.).

[2] = system: THP1 cells; test: Transwell chemotaxis assay toward CXCL12, THP1 cells; assay type: cell-based, human; details: THP1, Foxy-5 100 μM 72 h pretreatment, CXCL12 100 ng/mL, 24 h
Description: Leukemic cell lines, pretreated or not with Foxy-5 (72 hours of stimulation) were tested for chemotaxis in Transwell-based assays for Chemotaxis (6.5 mm diameter, 8 μm pore size; Corning). Polycarbonate membranes were incubated with poly-L-lysine (1 mg/mL) for 1 hour at 37° C. followed by saline buffer washing. Briefly, cells were collected, washed with media containing bovine serum albumin (0.1% BSA; Sigma), and then seeded at a density of 5×10^5 cells into the upper chamber of the transwell. The lower chamber was filled with media containing 0.5% BSA (negative control), media containing 10% FBS (positive control) and media 5 containing 0.5% BSA with CXCL12 (100 ng/ml; Peprotech) (Melo et al., 2014). Following 6 h or 24 h of incubation at 37° C., cells that migrated into the lower chamber were collected, centrifuged, resuspended in saline buffer and counted. The number of migrated cells was expressed as a percentage of the input, i.e., the cells number applied directly to the lower compartment in parallel wells. The migration of cells was normalized to 100%+/−standard deviation (SD) of triplicates (Favaro et al., 2013).
We investigated whether restoring of WNT5A could enable the modulation CXCL12-induced chemotaxis of leukemia cells. […]

[3] = system: THP1 cells; test: Actin polymerization assay, THP1 cells; assay type: cell-based, human; details: THP1, Foxy-5 100 μM 72 h
Description: F-actin polymerization was analyzed in treated leukemic cell lines using AlexaFluor 633-labeled phalloidin (A22284, Invitrogen) before and after CXCL12 stimulation. The cells were stimulated with CXCL12 (300 ng/ml; Peprotech) in serum-free media at 37 °C for 30 and 120 seconds. The reaction was stopped by adding 3 volumes of paraformaldehyde (3.7%) at room temperature for 10 min, then washed and permeabilized on ice. Cells were stained with 633-phalloidin (2 mg/mL). Flow cytometric data were analyzed using a FACS flow cytometer (BD) followed by FlowJo software analysis. The F-actin content obtained were normalized calculating the ratio between each stimulated cells-mean fluorescence intensity (MFI) values and the nonstimulated cells MFI from the basal levels of the control cells and expressed as fold change.
Therefore, we performed a flow cytometry analysis to evaluate whether Foxy-5 treatment would be able to disrupt actin polymerization. Leukemia cell lines were treated with Foxy-5 (100 μM) or vehicle during 72 hours, stimulated with CXCL12 (300 ng/ml) for 30 or 120 seconds, and stained with […] for detection of actin polymerization by flow cytometry. […] Thus, a significant reduction of actin polymerization was shown after Foxy-5 treatment when compared to untreated cells after 30 seconds of CXCL12 induction (P<. 001).

[4] = system: K562 cells; test: Autophagy assay (acridine orange), K562 cells; assay type: cell-based, human; details: K562, 2D culture, 72 h
Description: A panel of human myeloid leukemia cell lines (HL60, K562, KG1a, THP1 and U937) and HS-5 mesenchymal stromal cells lineage were cultured in Roswell Park Memorial Institute medium-1640 (RPMI; Sigma) containing 10% Fetal Bovine Serum (Gibco), glutamine (2 mM; Sigma), penicillin (100 μg/mL; Sigma), streptomycin (100 μg/mL; Sigma), and amphotericin B (0.25 μg/mL; Gibco). The cells were maintained in a humidified atmosphere at 37° C. and 5% CO2 and the experiments were performed when they reached exponential growth. For the assays, cells were seeded on a 24-well plate and treated or not with Foxy-5 for 72 hours.
Cells treated with Foxy or with vehicle were collected and acids vesicles were measured by flow cytometry following staining with Acridine Orange (0.01 mg/mL; Sigma). Acquisition of cells was performed on a FACScalibur flow cytometer (BD) and analysis was carried out using the FlowJo software 4.
As autophagy is required for sustaining leukemia cell growth by induction of ROS production, we measured the levels of acidic granule formation by flow cytometry after Foxy-5 or vehicle treatment. […]

[5] = NOD/SCID mice, U937 xenograft, Foxy-5 vs vehicle, after 9 days
Description: For the xenograft mouse model, a concentration of 40 μg/μL of Foxy-5 was used. […] Mice were anesthetized with isoflurane (4%) and U937 cells (5,000,000 cells/mouse) were inoculated in the mouse dorsal region by subcutaneous injection. When the tumours reached 100 mm^3, the treatment was initiated. Foxy-5 was administered once every 2 days by intraperitoneal injection. The control group received equal amounts of vehicle solution. The tumour volumes were measured every 2 days and evaluated according to the formula: tumour volume (mm^3) ¼ (length×width^2)/2. After 9 days, the mice were sacrificed, the tumour excised and tumour dimensions (tumour volume (mm^3) and tumour weight (grams, g)) were evaluated.

Substance: Foxy-5: Formylated hexapeptide fragment of WNT5A: MDGCEL (SEQ. ID. NO. 3) with methionine in position 1 as N-formyl methionine; WNT5A-mimicking compound (For-MDGCEL; listed as Homo sapiens)
- phosphorylation level of AKT compared to vehicle-treated cells [1]: lower phosphorylation levels
- phosphorylation level of ERK compared to vehicle-treated cells [1]: lower phosphorylation levels
- protein level of cyclin D1 compared to vehicle-treated cells [1]: reduced protein level
- CXCL12-induced chemotaxis (migrated cells as percentage of the input, average) [2]: 11.17%
- F-actin content following CXCL12 stimulation ([3]; CXCL12 300 ng/ml for 30 seconds): 3.56 fold increase
- F-actin content following CXCL12 stimulation ([3]; CXCL12 300 ng/ml for 120 seconds): 1.59 fold
- autophagy (acidic granule formation, acridine orange, average) ([4]; Foxy-5 50 μM): 21.32 (range 20.46-22.28) MFI
- autophagy (acidic granule formation, acridine orange, average) ([4]; Foxy-5 100 μM): 19.80 (range 19.70-20.40) MFI
- body weights of the xenograft mice [5]: did not vary significantly
